Eight compounds from ChEMBL document CHEMBL1132091, “Synthesis and biological activity of substituted bis-(4-hydroxyphenyl)methanes as N-type calcium channel blockers” (Bioorg Med Chem Lett, 1999) can be followed below.

Assay [1] has as its target T1, Voltage-dependent N-type calcium channel subunit alpha-1B (Homo sapiens, UniProt Q00975). In words: Inhibition of N-type calcium channels in IMR-32 human neuroblastoma cells. The format is functional, cell-based.
Target sequence in this assay (Q00975 whole entry): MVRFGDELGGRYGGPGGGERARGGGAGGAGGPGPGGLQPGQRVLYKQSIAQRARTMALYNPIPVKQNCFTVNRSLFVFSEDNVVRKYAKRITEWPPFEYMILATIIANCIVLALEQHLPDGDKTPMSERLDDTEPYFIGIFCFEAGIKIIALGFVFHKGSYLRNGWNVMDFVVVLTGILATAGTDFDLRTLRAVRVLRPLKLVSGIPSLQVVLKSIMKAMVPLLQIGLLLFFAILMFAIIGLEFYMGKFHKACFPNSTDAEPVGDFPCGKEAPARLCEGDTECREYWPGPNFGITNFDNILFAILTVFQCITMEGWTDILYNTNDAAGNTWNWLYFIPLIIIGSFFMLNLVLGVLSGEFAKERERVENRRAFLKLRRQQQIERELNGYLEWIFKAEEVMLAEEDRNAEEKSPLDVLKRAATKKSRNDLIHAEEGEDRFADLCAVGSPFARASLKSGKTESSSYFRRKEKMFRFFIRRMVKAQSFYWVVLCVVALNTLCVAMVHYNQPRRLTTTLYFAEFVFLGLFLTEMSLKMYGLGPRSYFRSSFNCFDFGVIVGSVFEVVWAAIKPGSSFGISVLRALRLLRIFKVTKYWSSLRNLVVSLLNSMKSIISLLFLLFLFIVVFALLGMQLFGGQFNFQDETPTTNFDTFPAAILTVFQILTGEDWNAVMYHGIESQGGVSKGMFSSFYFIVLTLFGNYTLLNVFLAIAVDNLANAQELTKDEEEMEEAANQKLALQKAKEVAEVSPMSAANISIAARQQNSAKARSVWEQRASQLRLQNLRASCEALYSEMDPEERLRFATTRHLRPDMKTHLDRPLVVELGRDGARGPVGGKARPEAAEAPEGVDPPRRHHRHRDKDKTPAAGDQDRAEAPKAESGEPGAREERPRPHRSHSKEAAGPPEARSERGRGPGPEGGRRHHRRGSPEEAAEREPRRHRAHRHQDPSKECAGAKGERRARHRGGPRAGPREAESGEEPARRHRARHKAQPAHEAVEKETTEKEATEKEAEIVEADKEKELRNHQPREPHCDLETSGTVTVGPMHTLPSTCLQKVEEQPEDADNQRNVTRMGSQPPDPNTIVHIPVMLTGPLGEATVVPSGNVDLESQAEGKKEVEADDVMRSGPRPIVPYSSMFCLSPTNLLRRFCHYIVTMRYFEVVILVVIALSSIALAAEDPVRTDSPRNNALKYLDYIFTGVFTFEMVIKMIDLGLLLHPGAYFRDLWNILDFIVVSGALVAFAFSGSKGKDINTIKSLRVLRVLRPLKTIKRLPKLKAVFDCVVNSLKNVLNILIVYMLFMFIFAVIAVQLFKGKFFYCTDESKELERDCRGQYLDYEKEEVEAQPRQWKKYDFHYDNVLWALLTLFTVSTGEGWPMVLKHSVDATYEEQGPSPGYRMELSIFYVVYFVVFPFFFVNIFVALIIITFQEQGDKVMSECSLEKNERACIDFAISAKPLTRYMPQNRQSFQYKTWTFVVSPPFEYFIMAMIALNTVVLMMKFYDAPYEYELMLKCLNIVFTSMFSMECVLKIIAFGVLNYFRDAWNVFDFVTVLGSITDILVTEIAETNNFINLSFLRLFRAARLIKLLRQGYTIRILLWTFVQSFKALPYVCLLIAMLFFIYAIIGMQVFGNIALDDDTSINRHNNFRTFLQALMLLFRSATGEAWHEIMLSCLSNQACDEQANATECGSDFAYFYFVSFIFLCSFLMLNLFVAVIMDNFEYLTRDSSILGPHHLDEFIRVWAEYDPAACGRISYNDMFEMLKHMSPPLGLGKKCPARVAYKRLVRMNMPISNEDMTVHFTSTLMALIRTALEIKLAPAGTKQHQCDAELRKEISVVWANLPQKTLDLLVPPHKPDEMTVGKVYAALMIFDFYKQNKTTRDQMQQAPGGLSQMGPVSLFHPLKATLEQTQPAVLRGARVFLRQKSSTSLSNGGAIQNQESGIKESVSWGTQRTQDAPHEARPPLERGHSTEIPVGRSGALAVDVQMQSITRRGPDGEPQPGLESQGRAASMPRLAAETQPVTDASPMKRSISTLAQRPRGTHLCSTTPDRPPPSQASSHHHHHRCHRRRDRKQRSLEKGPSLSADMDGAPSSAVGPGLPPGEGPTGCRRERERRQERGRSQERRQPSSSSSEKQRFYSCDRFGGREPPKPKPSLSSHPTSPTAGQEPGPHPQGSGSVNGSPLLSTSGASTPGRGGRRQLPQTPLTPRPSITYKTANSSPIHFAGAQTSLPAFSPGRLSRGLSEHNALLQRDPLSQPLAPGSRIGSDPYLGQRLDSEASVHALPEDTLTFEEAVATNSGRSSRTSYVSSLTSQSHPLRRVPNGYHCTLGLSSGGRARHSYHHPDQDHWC
Assay [2] in a line: Blockade of Na+ channels in SCG neurons at 10 uM. It is filed as functional. The settings on record: Rattus norvegicus.
For assay [3], the target named is Voltage-gated L-type calcium channel (Rattus norvegicus, UniProt P22002+Q02485+P27732). Kind of assay: Inhibition of L-type calcium channels in GH-3 rat pituitary cells. The format is functional, cell-based. The settings on record: pituitary gland cell.
Assay [4] can be described thus: Blockade of K+ channels in SCG neurons at 10 uM. It is filed as functional. The settings on record: Rattus norvegicus.
Assay [5] deals with T1, Voltage-dependent N-type calcium channel subunit alpha-1B. Kind of assay: Inhibition of N-type calcium channels in IMR-32 human neuroblastoma cells at 10 uM. It is filed as functional, cell-based.
Target sequence in this assay (Q00975 whole entry, looked up): as the sequence (Q00975 whole entry) above
The target is the same in assay [6]. Kind of assay: Inhibition of N-type calcium channel in IMR-32 human neuroblastoma cell. It is filed as functional.
Target sequence in this assay (Q00975 whole entry): as above

For the compound `Oc1c(/C=N\C2CCCCC2)ccc2cnccc12`, in assay [1], the 50% inhibitory concentration (IC50) came out at 35000 nM.

With `CC(CCCN(Cc1ccccc1)Cc1ccccc1)(c1ccc(O)c(CN2CCCCCC2)c1)c1ccc(O)c(CN2CCCCCC2)c1`, the inhibition at 10 µM in assay [2] was determined as 24%; in assay [4], 28%. Further, in assay [3], the half-maximal inhibitory concentration (IC50) was found to be 4100 nM.

For `CC(CCC(c1ccccc1)c1ccccc1)(c1ccc(O)c(CN2CCCCCC2)c1)c1ccc(O)c(CN2CCCCCC2)c1`, the inhibition at 10 µM in assay [2] was found to be 5%; in assay [4], 18%. In assay [3], the IC50 was 9100 nM.

Take `CC(CCC(O)(c1ccccc1)c1ccccc1)(c1ccc(O)c(CN2CCCCCC2)c1)c1ccc(O)c(CN2CCCCCC2)c1`: the inhibition at 10 µM in assay [2] was 78%; in assay [4] it was 61%. For the same compound, the 50% inhibitory concentration (IC50) in assay [3] was found to be 900 nM.

For the compound `CC(CCC(=O)N(Cc1ccccc1)Cc1ccccc1)(c1ccc(O)cc1)c1ccc(O)cc1`, in assay [5], the inhibition is -6%.

Turning to `CC(CCC(O)(c1ccccc1)c1ccccc1)(c1ccc(O)cc1)c1ccc(O)c(CN2CCCCCC2)c1` (configuration not stated), the IC50 in assay [6] amounted to 1800 nM.

As for `CC(C)(c1ccc(O)c(CN2CCCCCC2)c1)c1ccc(O)c(CN2CCCCCC2)c1`, the half-inhibitory concentration (IC50) in assay [6] was found to be 970 nM; in assay [3] it was 2000 nM. Further, the inhibition at 10 µM in assay [2] amounted to 81%; in assay [4], 77%.

Regarding `O=C(NCC(c1ccc(O)c(CN2CCCCCC2)c1)c1ccc(O)c(CN2CCCCCC2)c1)C(c1ccccc1)c1ccccc1`, the IC50 in assay [6] came out at 1800 nM.
